This is an account of results in US10030103B2, “Stable helical ionic polypeptides” (The Board of Trustees of the University of Illinois, priority 2010, dated 2018).

Series [1] can be described thus: Circular dichroism (CD) analysis of polypeptide conformation in aqueous solution. The format is physicochemical.
Description: CD measurements were carried out on a JASCO J-700 CD spectrometer in a quartz disc with a light path length of 1 cm at 0.01-0.1 mg/mL in DI water at room temperature or under conditions otherwise indicated.
The CD study was performed on a JASCO J-700 or on a J-720 CD spectrometer. Polymer samples were prepared at concentrations of 0.01-0.1 mg/mL at pH 3 unless otherwise specified. The solution was placed in a quartz cell with light path of 0.2 cm. The mean residue molar ellipticity of each polymer was calculated based on the measured apparent ellipticity, the molar concentration of polymer and the m.w. of the repeating unit. The CD experiments were carried out at room temperature unless otherwise specified. For temperature-dependency study, the temperature of the sample chamber which hosts the quartz cell was controlled by a water bath (from 4° C. to 70° C.).
The samples were equilibrated at corresponding temperature for at least 10 min before the CD measurements. For the sample preparations, the polymers were dissolved in DI water or in a solution containing NaCl, urea or methanesulfonic acid (MSA). For the pH-dependency study, the pH of the polymer solution was tuned by the addition of a concentrated HCl or NaOH solution.
The CD study was performed on a JASCO J-700 and J-720 CD spectrometer. Polymer samples were prepared at a concentration of 0.05 mg/mL in general unless otherwise specified. The solution was placed in a quartz disc with light path of 0.5 cm. Mean residue molar ellipticity was calculated based on the ellipticity obtained, concentration of polymer and the molar weight of the repeating unit.
The CD study was performed on a JASCO J-700 and J-720 CD spectrometer. The polymer samples were prepared at concentrations of 0.01-0.1 mg/mL in general unless otherwise specified. The solution was placed in a quartz cell with a path length of 0.5 cm. […] For the helix-temperature dependency study, the temperature of the sample chamber where the quartz cell was placed was controlled by a water bath (from 4° C. to 70° C.). […]
Series [2] relates to COS-7 cells. In words: In vitro transfection of COS-7 cells with polymer/DNA complexes (pCMV-Luc, luciferase expression). Type of series: cell-based. The settings on record: listed as PVBLG40-1. Here is the method: DNA/polymer complexes were prepared at room temperature by dissolving DNA (0.35 μg) in 150 mM NaCl, 20 mM HEPES (175 μL). An equal volume of 25-kDa branched PEI, lipofectamine 2000 or PVBLGn-X in 150 mM NaCl, 20 mM HEPES was added to achieve the desired weight ratio. The final complexes were incubated at room temperature for 15 min before further use. […] The transfection medium was replaced with fresh serum-supplemented growth medium 4 h post-transfection.
Luciferase expression was quantified 24 h post-transfection using the Promega Bright-Glo luciferase assay system (Promega, Madison, Wis.). Luciferase activity was measured in relative light units (RLU) using a PerkinElmer plate reader with luminescence capabilities (Waltham, Mass.). Results were normalized to total cell protein using the Pierce BCA protein assay kit (Rockford, Ill.). Transfections were performed in triplicate.

Series [3] has as its system DHSα E. coli. In words: Inhibition of bacterial growth in Luria broth (OD650). Type of series: cell-based. The note with it: up to 100 μg/mL, seven hours, 37° C. Here is the method: Luria broth (1×) was prepared containing known concentrations of the three polymers between 0 μg/mL and 100 μg/mL and dispensed (200 μL aliquots) in triplicate into the wells of a clear polystyrene 96-well plate. Separate wells containing the antibiotic kanamycin at 50 μg/mL were also prepared as a control. The wells were then inoculated with DHSα E. coli and left to grow at 37° C. with agitation. After seven hours, the plate was removed and the absorbance of 650 nm light was measured for each well (OD650). In general, as bacterial growth was inhibited, the resulting OD650 decreased. The average OD650 was then plotted for each sample (FIG. 50).

As to “Poly(γ-(4-aminoethylthiopropoxyl)-benzyl-L-glutamate) [(PAOBLG-AET)10]”, the “pH dependence of −[θ]222 / helical conformation” value in series [1] (pH range as stated in the value) is on record as “remained unchanged when the solution's pH was increased from 1 to 8”.

As for poly(L-lysine) [PLL75], in series [1] (aqueous solution, pH 1), the “conformation by CD” value is “completely random coil conformation”.

For the substance “poly(γ-(4-(1-hexanol-6-aminomethyl))benzyl-L-glutamate) [(PVBLG-1)40]”, in series [2], the “transfection efficiency” value is “on par with 25-kDa branched polyethylenimine (PEI)”.

For the substance “poly(γ-(4-(1-hexanol-6-aminomethyl))benzyl-L-glutamate) [PVBLG-1]”, the antimicrobial properties result in series [3] was “Neither PVBLGn-1 nor PVBLGn-8 displayed antimicrobial properties”.

On to poly-L-lysine [(PLL)60], for which the Helical content in series [1] (Table 9-2, (−[θ]222 + 3000)/39,000) is 0%.
